Measured values from ChEMBL document CHEMBL4476868, “Benzimidazole derivatives and uses thereof” (2017).

Biological target: Acetyl-coenzyme A synthetase, cytoplasmic (Homo sapiens, UniProt Q9NR19)
Assay: Inhibition of N-terminal 6x-histidine tagged human ACSS2 expressed in insect cells assessed as reduction in pyrophosphate production using CoA and ATP incubated for 30 mins by pyrophosphatase coupled enzymatic assay

Acetyl-coenzyme A synthetase, cytoplasmic, sequence (Q9NR19 whole entry): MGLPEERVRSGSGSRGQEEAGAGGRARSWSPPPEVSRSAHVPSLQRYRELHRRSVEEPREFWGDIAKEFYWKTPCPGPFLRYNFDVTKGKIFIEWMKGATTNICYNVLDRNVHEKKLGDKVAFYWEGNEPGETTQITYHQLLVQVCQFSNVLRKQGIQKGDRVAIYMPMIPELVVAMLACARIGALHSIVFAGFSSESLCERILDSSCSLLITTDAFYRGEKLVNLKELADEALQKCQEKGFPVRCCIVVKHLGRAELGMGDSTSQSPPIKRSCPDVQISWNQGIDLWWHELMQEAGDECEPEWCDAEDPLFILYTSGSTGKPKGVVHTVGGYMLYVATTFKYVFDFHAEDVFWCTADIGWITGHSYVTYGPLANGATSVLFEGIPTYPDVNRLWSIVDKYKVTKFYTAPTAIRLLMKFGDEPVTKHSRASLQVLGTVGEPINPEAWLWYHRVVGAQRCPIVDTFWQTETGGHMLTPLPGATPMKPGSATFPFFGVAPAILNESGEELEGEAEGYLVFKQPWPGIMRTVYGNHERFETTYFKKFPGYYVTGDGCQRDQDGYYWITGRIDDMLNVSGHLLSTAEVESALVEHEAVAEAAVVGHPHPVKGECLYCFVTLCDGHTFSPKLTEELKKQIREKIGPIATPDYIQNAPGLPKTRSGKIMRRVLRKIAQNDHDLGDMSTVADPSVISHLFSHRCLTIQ

Row | Structure (SMILES) | IC50
1 | CCn1c(C(O)(c2ccccc2)c2ccccc2)nc2ccc(C(OC(C)=O)C(F)(F)COC(C)=O)cc21 (stereo unspecified) | 0.05 to 0.249 µM
2 | C[C@@H](O)CNC(=O)c1ccc2nc(C(O)(c3ccccc3)c3ccccc3)n(CCF)c2c1 | 0.05 to 0.249 µM
3 | CCn1c(C(O)(c2ccccc2)c2ccccc2)nc2ccc(C(=O)NC[C@H](C)O)c(F)c21 | 0.05 to 0.249 µM
4 | CCn1c(C(O)(c2ccccc2)c2ccccc2F)nc2ccc(C(=O)NCCO)cc21 (stereo unspecified) | 0.05 to 0.249 µM
5 | CCn1c(C(O)(c2ccc(F)cc2F)c2ccc(F)cc2F)nc2ccc(C(=O)NC[C@@H](C)O)cc21 | 0.05 to 0.249 µM
6 | Cn1ccc(NC(=O)c2ccc3nc(C(O)(c4ccccc4F)c4ccccc4F)n(CCO)c3c2)n1 | 0.05 to 0.249 µM
7 | Cn1cc(NC(=O)c2ccc3nc(C(O)(c4ccccc4)c4ccccc4)n(CCO)c3c2)cn1 | 0.05 to 0.249 µM
8 | CCn1c(C(O)(c2ccc(F)cc2)c2ncccc2F)nc2ccc(CCCO)cc21 (stereo unspecified) | 0.05 to 0.249 µM
9 | Cn1c(C(O)(c2ccccc2F)c2ccccc2F)nc2ccc(C(=O)NCCO)cc21 | 0.05 to 0.249 µM
10 | CNC(=O)c1ccc2nc(C(O)(c3ccccc3)c3ccccc3)n(C3CC3)c2c1 | 0.25 to 1 µM
11 | CNC(=O)c1ccc2nc(C(O)(c3ccc(F)cc3)c3ccc(F)cc3)n(C)c2c1 | 0.25 to 1 µM
12 | CNC(=O)c1ccc2nc(C(O)(c3ccccc3F)c3ccccc3F)n(C)c2c1 | 0.05 to 0.249 µM
13 | CCn1c(C(O)(c2ccccc2)c2ccccc2)nc2ccc(C(=O)NCC3CCOCC3)cc21 | 0.05 to 0.249 µM
14 | CCn1c(C(O)(c2ccccc2)c2ccccc2)nc2cc(F)c(C(=O)NC)cc21 | 0.05 to 0.249 µM
15 | CCN1CC[C@@H](NC(=O)c2ccc3nc(C(O)(c4ccccc4)c4ccccc4)n(CC)c3c2)C1 | 0.05 to 0.249 µM
16 | CCn1c(C(O)(c2ccccc2)c2ccccc2)nc2ccc(C(=O)NC3CCN(C)CC3)cc21 | 0.25 to 1 µM
17 | CCn1c(C(O)(c2ccccc2F)c2ccccc2F)nc2ccc(C(=O)N[C@@H]3CCC(=O)N(C)C3)cc21 | 0.05 to 0.249 µM
18 | CCn1c(C(O)(c2ccccc2)c2ccccc2)nc2ccc(C(=O)N[C@@H]3CCC[C@@H](O)C3)cc21 | 0.05 to 0.249 µM
19 | CN1C[C@H](NC(=O)c2ccc3nc(C(O)(c4ccccc4)c4ccccc4)n(C)c3c2)CCC1=O | 0.05 to 0.249 µM
20 | CCn1c(C(O)(c2ccccc2)c2ccc(F)cc2F)nc2ccc(C(=O)NC[C@@H](C)O)cc21 (stereo partly specified) | 0.05 to 0.249 µM
21 | CCn1c(C(O)(c2ccccc2)c2ccccc2)nc2ccc(C(F)(F)C(=O)NC[C@@H](C)O)cc21 | 0.05 to 0.249 µM
22 | CCS(=O)(=O)c1ccc2nc(C(O)(c3ccccc3)c3ccccc3)n(C)c2c1 | 0.05 to 0.249 µM

Row | Structure (SMILES) | IC50
23 | CCn1c(C(O)(c2ccc(F)cc2)c2ccc(F)cc2)nc2ccc(C(=O)NC)cc21 | 0.25 to 1 µM
24 | Cn1ccc(NC(=O)c2ccc3nc(C(O)(c4ccccc4)c4ccccc4)n(CCO)c3c2)n1 | 0.05 to 0.249 µM
25 | CN1C[C@H](NC(=O)c2ccc3nc(C(O)(c4ccccc4F)c4ccccc4F)n(C)c3c2)CCC1=O | 0.05 to 0.249 µM
26 | CCn1c(C(O)(c2ccccc2)c2ccccc2)nc2ccc(C(=O)NC)c(F)c21 | 0.05 to 0.249 µM
27 | CCn1cc(-c2cc3c(cc2F)nc(C(O)(c2ccccc2)c2ccccc2)n3CC)cn1 | 0.05 to 0.249 µM
28 | CCn1c(C(O)(c2ccccc2)c2ccccc2)nc2c(F)cc(C(=O)NC[C@@H](C)O)cc21 | 0.05 to 0.249 µM
29 | Cn1c(C(O)(c2ccccc2)c2ccccc2)nc2ccc(S(C)(=O)=O)cc21 | 0.05 to 0.249 µM
30 | CCn1c(C(O)(c2ccccc2)c2ccccc2)nc2ccc(C(=O)NCC3CCNCC3)cc21 | 0.05 to 0.249 µM
31 | CCn1c(C(O)(c2ccccc2F)c2ncccc2F)nc2ccc(CCCO)cc21 (stereo unspecified) | 0.05 to 0.249 µM
32 | CCn1c(C(O)(c2ccccc2)c2ccccc2O)nc2ccc(C(=O)NC[C@@H](C)O)cc21 (stereo partly specified) | 0.05 to 0.249 µM
33 | CN1C[C@@H](NC(=O)c2ccc3nc(C(O)(c4ccccc4)c4ccccc4)n(C)c3c2)CCC1=O | 0.05 to 0.249 µM
34 | CC(O)Cn1c(C(O)(c2ccccc2)c2ccccc2)nc2ccc(C(=O)NC[C@@H](C)O)cc21 (stereo partly specified) | 0.05 to 0.249 µM
35 | CCn1c(C(O)(c2ccccc2)c2ccccc2)nc2ccc(C(=O)N[C@H]3CCC(=O)N(C)C3)cc21 | 0.05 to 0.249 µM
36 | CC(C)Cn1c(C(O)(c2ccccc2)c2ccccc2)nc2ccc(C(=O)NC[C@@H](C)O)cc21 | 0.05 to 0.249 µM
37 | CCn1c(C(O)(c2ccccc2F)c2ccccc2F)nc2ccc(C(=O)NCCO)cc21 | 0.05 to 0.249 µM
38 | CCn1c(C(O)(c2ccccc2)c2ccccc2)nc2ccc(C(=O)NC3(C#N)CC3)cc21 | 0.05 to 0.249 µM
39 | CCn1c(C(O)(c2ccccc2)c2ccccc2)nc2c(F)cc(C(=O)NC)cc21 | 0.25 to 1 µM
40 | CCn1c(C(O)(c2ccc(F)cc2F)c2ccc(F)cc2F)nc2ccc(C(=O)NC)cc21 | 0.05 to 0.249 µM
41 | CC(C)NC(=O)c1cccc(C(O)(c2ccccc2)c2nc3ccc(Cl)cc3n2C)c1 (stereo unspecified) | 0.25 to 1 µM
42 | Cn1cc(NC(=O)c2ccc3nc(C(O)(c4ccccc4F)c4ccccc4F)n(CCO)c3c2)cn1 | 0.05 to 0.249 µM
43 | CCn1c(C(O)(c2ccccc2F)c2ncccc2C)nc2ccc(CCCO)cc21 (stereo unspecified) | 0.05 to 0.249 µM
44 | CCn1c(C(O)(c2ccccc2)c2ccc3cnn(C)c3c2)nc2ccc(C(=O)NC)cc21 (stereo unspecified) | 0.05 to 0.249 µM

Next, values leading:

Row | IC50 | Structure (SMILES)
45 | 0.05 to 0.249 µM | CCn1cc(-c2ccc3nc(C(O)(c4ccccc4)c4ccccc4)n(CC)c3c2)cn1
46 | 0.05 to 0.249 µM | CCn1c(C(O)(c2ccccc2)c2ccccc2)nc2ccc(C(O)CO)cc21 (stereo unspecified)
47 | 0.05 to 0.249 µM | CCn1c(C(O)(c2ccccc2)c2ccccc2)nc2ccc(S(=O)(=O)NC[C@@H](C)O)cc21
48 | 0.25 to 1 µM | CCn1c(C(O)(c2ccccc2)c2ccccc2)nc2ccc(OCC(=O)NC)cc21
49 | 0.05 to 0.249 µM | CCn1c(C(O)(c2ccccc2)c2ccccc2)nc2ccc(C(=O)NOCCO)cc21
50 | 0.05 to 0.249 µM | CCOc1ccc2c(c1)nc(C(O)(c1ccccc1)c1ccccc1)n2C
51 | 0.05 to 0.249 µM | CCn1c(C(O)(c2ccccc2)c2ccccc2)nc2ccc(C(=O)Nc3ccccc3)cc21
52 | 0.05 to 0.249 µM | CCn1c(C(O)(c2ccccc2)c2ccccc2)nc2ccc(C(F)C#N)cc21 (stereo unspecified)
53 | 0.05 to 0.249 µM | CCn1c(C(O)(c2ccccc2)c2ccccc2)nc2ccc(CC(CO)CO)cc21
54 | 0.05 to 0.249 µM | CCC(O)CNC(=O)c1ccc2nc(C(O)(c3ccccc3)c3ccccc3)n(CC)c2c1 (stereo unspecified)
55 | 0.05 to 0.249 µM | C=CCC1(c2ccc3nc(C(O)(c4ccccc4)c4ccccc4)n(CC)c3c2)COC1
56 | 0.05 to 0.249 µM | CCn1c(C(O)(c2ccccc2)c2ccccc2)nc2ccc(CNC(=O)NC)cc21
57 | 0.05 to 0.249 µM | CCc1cccc(OCc2ccc3nc(C(O)(c4ccccc4)c4ccccc4)n(CC)c3c2)c1
58 | 0.05 to 0.249 µM | CCn1c(C(O)(c2ccccc2)c2ccccc2)nc2ccc(NC(=O)OC(C)(C)C)cc21
59 | 0.25 to 1 µM | CCn1c(C(O)(c2ccccc2)c2ccccc2)nc2ccc(C(=O)N(C)C)cc21
60 | 0.25 to 1 µM | CCOc1ccc2nc(C(O)(c3ccccc3)c3ccccc3)n(CC)c2c1
61 | 0.05 to 0.249 µM | CCn1c(C(O)(c2ccccc2)c2ccccc2)nc2ccc(C(=O)NC[C@@H](O)CO)cc21
62 | 0.05 to 0.249 µM | COc1ccc2c(c1)nc(C(O)(c1ccccc1)c1ccccc1)n2C
63 | 0.05 to 0.249 µM | CCn1c(C(O)(c2ccccc2)c2ccccc2)nc2ccc(S(=O)(=O)CC)cc21
64 | 0.05 to 0.249 µM | CCn1c(C(O)(c2ccccc2)c2ccccc2)nc2ccc(C(O)C(F)(F)F)cc21 (stereo unspecified)
65 | 0.05 to 0.249 µM | CCn1c(C(O)(c2ccccc2)c2ccccc2)nc2cc(OCCO)ncc21
66 | 0.05 to 0.249 µM | CCONC(=O)c1ccc2nc(C(O)(c3ccccc3)c3ccccc3)n(CC)c2c1
67 | 0.05 to 0.249 µM | CCn1c(C(O)(c2ccccc2)c2ccccc2)nc2ccc(CNC(C)=O)cc21
68 | 0.05 to 0.249 µM | CCn1c(C(O)(c2ccccc2)c2ccccc2)nc2ccc(NC(=O)COC)cc21
69 | 0.25 to 1 µM | CCn1c(C(O)(c2ccccc2)c2ccccc2)nc2ccc(OCC(O)CO)cc21 (stereo unspecified)
70 | 0.05 to 0.249 µM | CCOC(=O)C(F)(F)c1ccc2nc(C(O)(c3ccccc3)c3ccccc3)n(CC)c2c1

Row | IC50 | Structure (SMILES)
71 | 0.05 to 0.249 µM | CCn1c(C(O)(c2ccccc2)c2ccccc2)nc2ccc(CCO)cc21
72 | 0.05 to 0.249 µM | CCn1c(C(O)(c2ccccc2)c2ccccc2)nc2ccc(CNC(=O)CO)cc21
73 | 0.05 to 0.249 µM | CCn1c(C(O)(c2ccccc2)c2ccccc2)nc2ccc(CCC(=O)NC)cc21
74 | 0.25 to 1 µM | CCn1c(C(O)(c2ccccc2)c2ccccc2)nc2ccc(Cl)cc21
75 | 0.05 to 0.249 µM | CCn1c(C(O)(c2ccccc2)c2ccccc2)nc2ccc(C(N)=O)cc21
76 | 0.05 to 0.249 µM | CCn1c(C(O)(c2ccccc2)c2ccccc2)nc2ccc(C(=O)Nc3cnn(CCO)c3)cc21
77 | 0.25 to 1 µM | CCn1c(C(O)(c2ccccc2)c2ccccc2)nc2ccc(C(=O)N3CCC3)cc21
78 | 0.05 to 0.249 µM | CCn1c(C(O)(c2ccccc2)c2ccccc2)nc2ccc(C(=O)NCC(O)COC)cc21 (stereo unspecified)
79 | 0.05 to 0.249 µM | CCn1c(C(O)(c2ccccc2)c2ccccc2)nc2ccc(CC(O)CO)cc21 (stereo unspecified)
80 | 0.05 to 0.249 µM | CCn1c(C(O)(c2ccccc2)c2ccccc2)nc2ccc(CNC(=O)COC)cc21
81 | 0.25 to 1 µM | CCn1c(C(O)(c2ccccc2)c2ccccc2)nc2ccc(OCc3ccccc3)cc21
82 | 0.25 to 1 µM | CCn1c(C(O)(c2ccccc2)c2ccccc2)nc2ccc(C(=O)NC3CCC3)cc21
83 | 0.25 to 1 µM | CCn1c(C(O)(c2ccccc2)c2ccccc2)nc2ccc(C(=O)NC(C)CO)cc21 (stereo unspecified)
84 | 0.05 to 0.249 µM | CCn1c(C(O)(c2ccccc2)c2ccccc2)nc2ccc(C(=O)NC[C@H](O)CO)cc21
85 | 0.05 to 0.249 µM | CCn1c(C(O)(c2ccccc2)c2ccccc2)nc2ccc(C(=O)NC3CCNC3)cc21 (stereo unspecified)
86 | 0.05 to 0.249 µM | CCn1c(C(O)(c2ccccc2)c2ccccc2)nc2ccc(C(=O)Nc3ccc(OC)cc3)cc21
87 | 0.05 to 0.249 µM | CCn1c(C(O)(c2ccccc2)c2ccccc2)nc2ccc(N)cc21
88 | 0.25 to 1 µM | CCn1c(C(O)(c2ccccc2)c2ccccc2)nc2ccc(OC)cc21
89 | 0.05 to 0.249 µM | CCn1c(C(O)(c2ccccc2)c2ccccc2)nc2ccc(C(=O)Nc3cn(C)cn3)cc21
90 | 0.25 to 1 µM | CCn1c(C(O)(c2ccccc2)c2ccccc2)nc2ccc(C(=O)NCCO)cc21
91 | 0.05 to 0.249 µM | CCn1c(C(O)(c2ccccc2)c2ccccc2)nc2ccc(C(=O)NCC(F)(F)C(N)=O)cc21
92 | 0.25 to 1 µM | CCn1c(C(O)(c2ccccc2)c2ccccc2)nc2ccc(C(=O)N3CC(O)C3)cc21
93 | 0.25 to 1 µM | CCn1c(C(O)(c2ccccc2)c2ccccc2)nc2ccc(C(=O)NC(C)C)cc21
94 | 0.25 to 1 µM | CCn1c(C(O)(c2ccccc2)c2ccccc2)nc2ccc(OCC(=O)N(C)C)cc21
95 | 0.25 to 1 µM | CCn1c(C(O)(c2ccccc2)c2ccccc2)nc2ccc(C(=O)NCCOC)cc21
96 | 0.25 to 1 µM | CCn1c(C(O)(c2ccccc2)c2ccccc2)nc2ccc(C(=O)NCCN(C)C)cc21
